Entries after “also recorded” stand apart in the source; their conditions may differ. Where two headings read alike, the source gives them in different places.
Columns and labels:
[1] = tested on: CYP (cytochrome P450 enzymes); experiment: CYP inhibition in vitro
[2] = Phase-1 drug-drug interaction study in healthy volunteers (Compound (III) 800 mg, SMV 150 mg, Odalasvir 150 mg loading then 50 mg, once daily): plasma PK; type: in vivo, human; conditions: for AUC0-24 / Cmax: both sexes, human, plasma, oral; for AUC0-24: read-out: AUC0-24; for Cmax: read-out: Cmax
Description: The following daily doses were employed:

OATP1B3 = target: T1, OATP1B3 (Homo sapiens, UniProt Q9NPD5); conditions: in vitro; cited from earlier work
T1 sequence (Q9NPD5 1-702): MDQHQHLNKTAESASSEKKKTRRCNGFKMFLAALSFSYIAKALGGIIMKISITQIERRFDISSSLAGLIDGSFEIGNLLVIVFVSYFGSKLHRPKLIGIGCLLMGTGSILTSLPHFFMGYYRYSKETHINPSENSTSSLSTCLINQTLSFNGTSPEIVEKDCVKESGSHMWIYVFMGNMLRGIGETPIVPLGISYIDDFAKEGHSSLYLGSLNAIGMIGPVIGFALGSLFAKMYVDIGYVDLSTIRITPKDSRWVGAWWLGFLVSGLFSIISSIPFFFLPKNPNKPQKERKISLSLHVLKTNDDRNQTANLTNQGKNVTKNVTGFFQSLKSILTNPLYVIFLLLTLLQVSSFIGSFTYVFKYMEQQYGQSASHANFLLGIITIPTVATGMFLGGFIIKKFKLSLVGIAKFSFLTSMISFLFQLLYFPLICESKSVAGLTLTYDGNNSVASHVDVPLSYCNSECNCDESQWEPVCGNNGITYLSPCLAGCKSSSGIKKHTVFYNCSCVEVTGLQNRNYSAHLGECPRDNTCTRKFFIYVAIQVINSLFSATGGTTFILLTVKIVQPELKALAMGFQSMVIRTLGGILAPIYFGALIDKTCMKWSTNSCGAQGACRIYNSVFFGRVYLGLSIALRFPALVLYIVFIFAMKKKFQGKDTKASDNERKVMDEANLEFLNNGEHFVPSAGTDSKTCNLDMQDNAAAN

[3] = PK of single agents vs fixed dose combinations (FDC), single oral dose in healthy volunteers; type: in vivo, human; conditions: for Cmax / AUC(0-t) / AUC(0-inf) / Tmax: human, plasma, oral; for Cmax: read-out: Cmax (mean ± SD); for AUC(0-t): read-out: AUClast (mean ± SD); for AUC(0-inf): read-out: AUC∞ (mean ± SD); for Tmax: read-out: tmax (median [range])
Outline: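 Healthy volunteers received single oral doses of SMV 100 mg, ODV 50 mg and Compound (III) 800 mg, either as separate agents (reference arm) or as fixed dose combinations with ODV spray-dried with HPMC-AS L (1/1 or 1/3 w/w) or with copovidone/poloxamers. Plasma Cmax, tmax, AUClast and AUC∞ determined for parent drugs and metabolites Compound A-1 and A-3.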

P-gp = P-gp (Homo sapiens, UniProt P08183); conditions: in vitro, cited from earlier work
P-gp, sequence (P08183 whole entry): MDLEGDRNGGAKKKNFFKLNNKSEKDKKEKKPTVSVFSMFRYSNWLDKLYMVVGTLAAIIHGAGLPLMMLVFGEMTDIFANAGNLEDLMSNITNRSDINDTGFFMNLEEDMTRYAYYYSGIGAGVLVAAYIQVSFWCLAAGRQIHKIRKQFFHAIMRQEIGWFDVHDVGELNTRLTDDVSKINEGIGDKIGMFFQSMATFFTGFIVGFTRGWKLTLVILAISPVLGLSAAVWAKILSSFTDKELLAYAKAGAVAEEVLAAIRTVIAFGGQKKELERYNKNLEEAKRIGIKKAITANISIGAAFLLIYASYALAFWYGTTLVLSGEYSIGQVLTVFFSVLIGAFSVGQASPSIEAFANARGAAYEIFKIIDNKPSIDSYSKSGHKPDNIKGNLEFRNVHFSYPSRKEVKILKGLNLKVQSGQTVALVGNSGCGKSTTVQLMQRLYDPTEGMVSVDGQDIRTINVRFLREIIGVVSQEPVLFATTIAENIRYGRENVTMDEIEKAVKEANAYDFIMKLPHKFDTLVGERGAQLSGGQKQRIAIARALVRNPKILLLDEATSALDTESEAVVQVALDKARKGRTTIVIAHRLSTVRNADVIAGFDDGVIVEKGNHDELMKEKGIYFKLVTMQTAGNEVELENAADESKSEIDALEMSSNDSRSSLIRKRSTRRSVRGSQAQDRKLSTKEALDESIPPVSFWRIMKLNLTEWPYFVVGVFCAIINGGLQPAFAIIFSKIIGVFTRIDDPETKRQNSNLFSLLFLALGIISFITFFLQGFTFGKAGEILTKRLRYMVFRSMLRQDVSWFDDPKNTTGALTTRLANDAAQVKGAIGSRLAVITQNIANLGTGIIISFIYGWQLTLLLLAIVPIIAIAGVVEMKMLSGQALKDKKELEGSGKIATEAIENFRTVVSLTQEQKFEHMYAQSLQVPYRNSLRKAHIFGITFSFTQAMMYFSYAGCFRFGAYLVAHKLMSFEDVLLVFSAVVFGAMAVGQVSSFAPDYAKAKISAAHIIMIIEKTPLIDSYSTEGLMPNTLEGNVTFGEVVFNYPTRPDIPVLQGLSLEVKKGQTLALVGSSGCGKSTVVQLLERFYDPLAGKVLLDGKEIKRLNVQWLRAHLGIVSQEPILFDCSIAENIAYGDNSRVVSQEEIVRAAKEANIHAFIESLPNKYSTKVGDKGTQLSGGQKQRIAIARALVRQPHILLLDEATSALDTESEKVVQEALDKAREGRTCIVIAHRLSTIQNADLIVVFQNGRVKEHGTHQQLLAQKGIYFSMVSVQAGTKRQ

OATP1B1 = target: T2, OATP1B1 (Homo sapiens, UniProt Q9Y6L6); conditions: in vitro; cited from earlier work
T2 sequence (Q9Y6L6 1-691): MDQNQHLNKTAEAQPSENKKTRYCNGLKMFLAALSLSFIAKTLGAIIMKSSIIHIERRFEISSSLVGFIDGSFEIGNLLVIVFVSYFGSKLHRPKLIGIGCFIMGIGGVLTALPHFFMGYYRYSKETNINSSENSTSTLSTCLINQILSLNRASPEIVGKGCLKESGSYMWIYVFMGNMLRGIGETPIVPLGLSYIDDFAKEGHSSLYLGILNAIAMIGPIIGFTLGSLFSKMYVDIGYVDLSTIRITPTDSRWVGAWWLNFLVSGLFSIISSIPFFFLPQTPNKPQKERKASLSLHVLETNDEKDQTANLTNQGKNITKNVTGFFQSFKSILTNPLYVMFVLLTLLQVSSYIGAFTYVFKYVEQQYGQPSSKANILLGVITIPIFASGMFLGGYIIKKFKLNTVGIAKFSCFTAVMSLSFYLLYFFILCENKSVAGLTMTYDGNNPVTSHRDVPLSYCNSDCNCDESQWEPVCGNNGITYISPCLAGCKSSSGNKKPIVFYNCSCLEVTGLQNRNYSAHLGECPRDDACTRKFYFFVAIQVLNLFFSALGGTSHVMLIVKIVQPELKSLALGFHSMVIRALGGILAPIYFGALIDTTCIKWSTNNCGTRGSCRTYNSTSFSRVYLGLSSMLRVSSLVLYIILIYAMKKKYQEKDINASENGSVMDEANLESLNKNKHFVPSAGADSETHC

[4] = Group 1, Day 23 (SMV + Compound (III) + ODV)
[5] = Group 2, Day 13 (ODV + Compound (III))
[6] = Group 2, Day 23 (ODV + Compound (III) + SMV)
[7] = Arm 1 (reference): single agents together
[8] = Arm 2 (FDC02) vs reference (Arm 1)
[9] = Arm 3 (FDC04) vs reference (Arm 1)
[10] = Arm 4 (FDC01) vs reference (Arm 1)

- CYP inhibition potential (in words) ([1]; on any CYP): does not inhibit
- inhibition of any CYP ([1]; up to 10 μM): no inhibition
- increase of exposure, effect of the three Compounds ([2]; Compound (III) + SMV + ODV co-administered vs given alone): 1.5 fold
- AUC0-24 ([2]; Group 1, Day 20 (ODV + SMV)): 10800 ng·h/mL
- Cmax ([2]; Group 1, Day 20 (ODV + SMV)): 649 ng/mL
- AUC0-24 [2, 4]: 12800 ng·h/mL
- Cmax [2, 4]: 744 ng/mL
- AUC0-24 ([2]; Group 2, Day 10 (ODV alone)): 8720 ng·h/mL
- Cmax ([2]; Group 2, Day 10 (ODV alone)): 582 ng/mL
- AUC0-24 [2, 5]: 10200 ng·h/mL
- Cmax [2, 5]: 669 ng/mL
- AUC0-24 ([2]; Group 2, Day 20 (ODV + SMV)): 14000 ng·h/mL
- Cmax ([2]; Group 2, Day 20 (ODV + SMV)): 770 ng/mL
- AUC0-24 [2, 6]: 14800 ng·h/mL
- Cmax [2, 6]: 780 ng/mL
- increase of exposure caused by SMV ([2]; co-administered with SMV vs without): 1.6 fold
- t1/2term (mean ± SD) [3, 7]: 168.6 ± 21.7 h
- Least Square Means Ratio, AUClast [3, 8]: 89.66%
- Least Square Means Ratio, Cmax [3, 8]: 81.00%
- t1/2term (mean ± SD) ([3]; Arm 2: FDC02): 169.0 ± 24.5 h
- Least Square Means Ratio, AUClast [3, 9]: 182.32%
- Least Square Means Ratio, Cmax [3, 9]: 165.30%
- t1/2term (mean ± SD) ([3]; Arm 3: FDC04): 176.0 ± 29.5 h
- Least Square Means Ratio, AUClast [3, 10]: 180.14%
- Least Square Means Ratio, Cmax [3, 10]: 163.29%
- t1/2term (mean ± SD) ([3]; Arm 4: FDC01): 167.8 ± 22.4 h
- Cmax ([3]; Arm 1 (reference): single agents together, SMV 100-mg capsule, ODV 50-mg tablet, two Compound (III) 400-mg tablets): 186 ± 60.4 ng/mL
- AUC(0-t) [3, 7]: 6320 ± 2320 ng·h/mL
- AUC(0-inf) [3, 7]: 7080 ± 2140 ng·h/mL
- Tmax [3, 7]: 6 h
- Cmax ([3]; Arm 2: FDC02, SMV 100 mg + ODV 50 mg (ODV/HPMC-AS L 1/1 w/w) + Compound (III) 800 mg): 151 ± 54 ng/mL
- AUC(0-t) ([3]; Arm 2: FDC02): 5590 ± 1890 ng·h/mL
- AUC(0-inf) ([3]; Arm 2: FDC02): 7040 ± 2130 ng·h/mL
- Tmax ([3]; Arm 2: FDC02): 6 h
- Cmax ([3]; Arm 3: FDC04, SMV 100 mg + ODV 50 mg (ODV/HPMC-AS L 1/3 w/w) + Compound (III) 800 mg): 301 ± 80.5 ng/mL
- AUC(0-t) ([3]; Arm 3: FDC04): 11500 ± 4390 ng·h/mL
- AUC(0-inf) ([3]; Arm 3: FDC04): 14800 ± 5120 ng·h/mL
- Tmax ([3]; Arm 3: FDC04): 6 h
- Cmax ([3]; Arm 4: FDC01, SMV 100 mg + ODV 50 mg (copovidone and poloxamers) + Compound (III) 800 mg): 298 ± 81.7 ng/mL
- AUC(0-t) ([3]; Arm 4: FDC01): 11100 ± 3350 ng·h/mL
- AUC(0-inf) ([3]; Arm 4: FDC01): 15700 ± 3560 ng·h/mL
- Tmax ([3]; Arm 4: FDC01): 6 h
SMILES: COC(=O)N[C@H](C(=O)N1[C@H](c2nc3cc(-c4cc5ccc4CCc4ccc(c(-c6ccc7[nH]c([C@@H]8C[C@@H]9CCCC[C@@H]9N8C(=O)[C@@H](NC(=O)OC)C(C)C)nc7c6)c4)CC5)ccc3[nH]2)C[C@@H]2CCCC[C@@H]21)C(C)C [ODV, Odalasvir]
- effect of Compound (III) on exposure / bioavailability ([2]; co-administered with Compound (III)): no apparent effect; also recorded: does not alter
- OATP1B3 inhibition (in words) (OATP1B3): no inhibition
- P-gp inhibition (in words) (P-gp): moderate inhibition
- IC50 (P-gp; read-out: Pgp inhibition IC50): 9.5 µM
- OATP1B1 inhibition (in words) (OATP1B1): no inhibition

From US20170087174A1, “COMBINATION THERAPY REGIMEN FOR TREATMENT OF HCV” (JANSSEN PHARMACEUTICALS, INC., priority 2015, published 2017)
